Experimental data as given in patent publication US5461045A, “Fused benzeneoxyacetic acid derivatives” (Ono Pharmaceutical Co., Ltd., priority 1992, dated 1995).

Experiments:
PGI2 receptor = target: T1, PGI2 receptor (Homo sapiens, UniProt P43119); experiment: Inhibitory activity against 3H-iloprost binding onto PGI2 receptor in human platelet membrane fraction; settings: inhibition of 10 nM [3H]-iloprost specific binding; human platelet membranes 300 μg; 24° C., 30 min; pH 7.4
T1 construct: 300 μg of platelet plasma membranes; from tissue; host or cells: human platelets (plasma membranes)
T1 sequence (P43119 whole entry): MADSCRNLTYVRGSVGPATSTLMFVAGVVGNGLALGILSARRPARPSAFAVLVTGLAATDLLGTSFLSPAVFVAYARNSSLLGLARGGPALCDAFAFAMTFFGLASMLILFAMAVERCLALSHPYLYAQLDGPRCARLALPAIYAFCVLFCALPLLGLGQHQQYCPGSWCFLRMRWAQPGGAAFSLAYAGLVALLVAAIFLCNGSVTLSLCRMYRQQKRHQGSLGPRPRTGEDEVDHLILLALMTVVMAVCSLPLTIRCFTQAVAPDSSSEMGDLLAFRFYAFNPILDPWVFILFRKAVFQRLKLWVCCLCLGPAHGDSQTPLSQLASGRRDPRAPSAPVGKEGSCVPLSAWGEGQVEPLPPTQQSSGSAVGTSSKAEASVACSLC
Procedure: i) Inhibitory activity against ^3 H-iloprost onto PGI2 receptor in human platelet membrane fraction The binding assay was performed in 200 μl volumes containing 300 μg of platelet plasma membranes. The membranes were added to a buffer composed of 50 mM Tris-HCl (pH 7.4), 15 mM MgCl2, 5 mM EDTA with test compound and 10 nM [^3 H]-iloprost. The membranes were incubated at 24° C. for 30 min. After incubation, 4ml of ice-cold 10 mM Tris-HCl buffer (pH 7.4) was added to the reaction mixture, and filtered through Whatman GF/B glass fiber filter, and washed 4 times with 4 ml of ice-cold 10 mM Tris-HCl buffer (pH 7.4) to separate bound and free [^3 H]-iloprost. After washing, the filter was dried and radioactivity was counted. Non-specific binding was obtained by performing parallel binding experiments in the presence of 10 μM non-labelled iloprost. Specific binding was calculated by subtracting the non-specific binding from the total binding. The inhibitory effect of test compound was calculated from the following equation. The percentage of inhibition (%)=100-(B1 /B0 ×100) B1 : specific [^3 H]-iloprost binding in presence of test compound B0 : specific [^3 H]-iloprost binding in absence of test compound

[1] = system: Human platelet aggregation; experiment: Inhibitory effect on human platelet aggregation (ADP-induced, platelet-rich plasma); format: cell-based; settings: compound added 1 min prior to ADP (4 μM)
Procedure: | ii) Inhibitory effect on Human platelet aggregation Method of | experiment Platelet-rich plasma was prepared from human blood (5×10^5 platelets/mm^3), and the test compound was added to PRP 1 min prior to the addition of ADP (4 μM). The aggregation was monitored using a platelet aggregometer (NBS HEMA TRACER 601, Niko Bioscience, Japan).

Row | Structure (SMILES) | IC50 (PGI2 receptor) [nM] | IC50 [1] [nM]
1 | O=C(O)COc1cccc2c1CCCC2CC=NOC(c1ccccc1)c1ccccc1 (stereo not drawn) [3(a)] | 5400 | –
2 | O=C(O)COc1cccc2c1CCC2CC=NOC(c1ccccc1)c1ccccc1 (stereo not drawn) [3(e)] | 3600 | –
3 | CC(CC1CCc2c(cccc2OCC(=O)O)C1)=NOC(c1ccc(F)cc1)c1ccc(F)cc1 (stereo not drawn) [6(e)] | 480 | –
4 | CC(CC1CCc2c(cccc2OCC(=O)O)C1)=NOC(c1ccccc1)c1ccc([N+](=O)[O-])cc1 (stereo not drawn) [6(f)] | 1000 | –
5 | CC(CC1CCc2c(cccc2OCC(=O)O)C1)=NOC(c1ccccc1)c1ccncc1 (stereo not drawn) [6(g)] | 700 | –
6 | CC(CC1CCc2c(cccc2OCC(=O)O)C1)=NOC(c1ccccc1)c1cccnc1 (stereo not drawn) [6(h)] | 1300 | 1100
7 | CC(CC1CCc2c(cccc2OCC(=O)O)C1)=NOC(c1ccccc1)c1ccccn1 (stereo not drawn) [6(i)] | 1800 | –
8 | COc1ccc(C(ON=C(C)CC2CCc3c(cccc3OCC(=O)O)C2)c2ccc(OC)cc2)cc1 (stereo not drawn) [6(j)] | 1800 | –
9 | CC(CC1CCc2c(cccc2OCC(=O)O)C1)=NOC(c1ccccc1)c1ccc(Cl)cc1 (stereo not drawn) [6(k)] | 300 | –
10 | CC(CC1CCc2c(cccc2OCC(=O)O)C1)=NOCc1ccccc1 (stereo not drawn) [6(l)] | 1400 | –
11 | CCC(CC1CCc2c(cccc2OCC(=O)O)C1)=NOC(c1ccccc1)c1ccccc1 (stereo not drawn) [6(m)] | 270 | 71
12 | CCCC(CC1CCc2c(cccc2OCC(=O)O)C1)=NOC(c1ccccc1)c1ccccc1 (stereo not drawn) [6(n)] | 270 | 120

Now from value to molecule:

Row | IC50 (PGI2 receptor) [nM] | IC50 [1] [nM] | Structure (SMILES)
13 | 2300 | – | CC(C)C(CC1CCc2c(cccc2OCC(=O)O)C1)=NOC(c1ccccc1)c1ccccc1 (stereo not drawn) [6(o)]
14 | 2800 | – | O=C(O)COc1cccc2c1CCC(CC(=NOC(c1ccccc1)c1ccccc1)c1ccccc1)C2 (stereo not drawn) [6(p)]
15 | 2700 | – | CCCCCC(ON=C(C)CC1CCc2c(cccc2OCC(=O)O)C1)c1ccccc1 (stereo not drawn) [6(r)]
16 | 9600 | – | CC(CC1CCc2c(cccc2OCC(=O)O)C1)=NOC(c1ccccc1)C1CCCCC1 (stereo not drawn) [6(s)]
17 | 890 | 500 | O=C(O)COc1cccc2c1CCC(CC=NOC(c1ccccc1)c1ccccc1)C2 (stereo not drawn) [Example 3, [2-(2-Diphenylmethyloxyiminoethyl)-1,2,3,4-tetrahydro-naphthalen-5-yloxy]acetic acid]
18 | 2500 | – | O=C(O)COc1cccc2c1CCC(CCC=NOC(c1ccccc1)c1ccccc1)C2 (stereo not drawn) [Example 4, [2-(3-Diphenylmethyloxyiminopropyl)-1,2,3,4-tetrahydro-naphthalen-5-yloxy]acetic acid]
19 | 7000 | – | CCOC(=O)COc1cccc2c1CCC(CC(C)=NOC(c1ccccc1)c1ccccc1)C2 (stereo not drawn) [Example 5, [2-(2-Diphenylmethyloxyiminopropyl)-1,2,3,4-tetrahydro-naphthalen-5-yloxy]acetic acid ethyl ester]
20 | 280 | 240 | CC(CC1CCc2c(cccc2OCC(=O)O)C1)=NOC(c1ccccc1)c1ccccc1 (stereo not drawn) [Example 6, [2-(2-Diphenylmethyloxyiminopropyl)-1,2,3,4-tetrahydro-naphthalen-5-yloxy]acetic acid]
21 | 4000 | – | O=C(O)COc1cccc2c1CCC(CCNOC(c1ccccc1)c1ccccc1)C2 (stereo not drawn) [Example 8, [2-(2-Diphenylmethyloxyaminoethyl)-1,2,3,4-tetrahydro-naphthalen-5-yloxy]acetic acid]
22 | 1900 | – | O=C(O)COc1cccc2c1CCCC(C=NOC(c1ccccc1)c1ccccc1)C2 (stereo not drawn) [Example 9]
